Data reported in PubChem BioAssay (NCI).
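Where inhibition never reached the appropriate level, the endpoint shown equals the highest concentration tested. Otherwise, values were interpolated linearly from a five-concentration, 48-hour dose response in 96-well plates. The concentration for 50% growth inhibition is given as GI50. At the TGI there is no net growth.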

Columns and labels:
Test in all cases: DTP human tumour cell line panel, 48 h
RPMI-8226 leukemia = test system: RPMI-8226 leukemia
PC-3 prostate = test system: PC-3 prostate
ACHN renal = test system: ACHN renal
LOX IMVI melanoma = test system: LOX IMVI melanoma
DU-145 prostate = test system: DU-145 prostate
NCI-H23 lung = test system: NCI-H23 lung
SF-268 CNS = test system: SF-268 CNS
U251 CNS = test system: U251 CNS
NCI-H226 lung = test system: NCI-H226 lung
M14 melanoma = test system: M14 melanoma
SK-OV-3 ovarian = test system: SK-OV-3 ovarian
HL-60(TB) leukemia = test system: HL-60(TB) leukemia
UO-31 renal = test system: UO-31 renal
SNB-19 CNS = test system: SNB-19 CNS
786-0 renal = test system: 786-0 renal
OVCAR-8 ovarian = test system: OVCAR-8 ovarian
KM12 colon = test system: KM12 colon
T-47D breast = test system: T-47D breast
MOLT-4 leukemia = test system: MOLT-4 leukemia
OVCAR-5 ovarian = test system: OVCAR-5 ovarian
NCI-H522 lung = test system: NCI-H522 lung
MDA-MB-231 breast = test system: MDA-MB-231 breast
SF-539 CNS = test system: SF-539 CNS
HCT-116 colon = test system: HCT-116 colon
NCI-H460 lung = test system: NCI-H460 lung
BT-549 breast = test system: BT-549 breast
COLO 205 colon = test system: COLO 205 colon
MDA-MB-435 = test system: MDA-MB-435
NCI/ADR-RES ovarian = test system: NCI/ADR-RES ovarian
TK-10 renal = test system: TK-10 renal
HOP-62 NSCLC = test system: HOP-62 NSCLC
CAKI-1 renal = test system: CAKI-1 renal
SK-MEL-2 melanoma = test system: SK-MEL-2 melanoma
HOP-92 NSCLC = test system: HOP-92 NSCLC
HCT-15 colon = test system: HCT-15 colon
HCC-2998 colon = test system: HCC-2998 colon
A549 NSCLC = test system: A549 NSCLC
SK-MEL-5 melanoma = test system: SK-MEL-5 melanoma
UACC-257 melanoma = test system: UACC-257 melanoma
CCRF-CEM leukemia = test system: CCRF-CEM leukemia
SN12C renal = test system: SN12C renal
EKVX NSCLC = test system: EKVX NSCLC
OVCAR-3 ovarian = test system: OVCAR-3 ovarian
SK-MEL-28 melanoma = test system: SK-MEL-28 melanoma
MALME-3M melanoma = test system: MALME-3M melanoma
SF-295 CNS = test system: SF-295 CNS
UACC-62 melanoma = test system: UACC-62 melanoma
HS 578T breast = test system: HS 578T breast
SW-620 colon = test system: SW-620 colon
OVCAR-4 ovarian = test system: OVCAR-4 ovarian
MCF7 breast = test system: MCF7 breast
RXF 393 renal = test system: RXF 393 renal
SR leukemia = test system: SR leukemia
K-562 leukemia = test system: K-562 leukemia
HT29 colon = test system: HT29 colon
IGROV1 ovarian = test system: IGROV1 ovarian

Work on `O=S(=O)(Nc1ccc(I)c(Cl)c1)c1ccc(-c2cnc(C3CC3)o2)cc1` yielded a GI50 (RPMI-8226 leukemia) of 2.61 µM, a TGI (RPMI-8226 leukemia) of 23.1 µM and a GI50 (PC-3 prostate) of 1.12 µM. For the same compound, the TGI (PC-3 prostate) was 11.7 µM, the GI50 (ACHN renal) was 3.03 µM and the TGI (ACHN renal) was 16.8 µM. The GI50 (LOX IMVI melanoma) was 2.64 µM, the TGI (LOX IMVI melanoma) was 17.7 µM and the GI50 (DU-145 prostate) was 2.63 µM. The TGI (DU-145 prostate) was 11.8 µM, the GI50 (NCI-H23 lung) was 2.68 µM and the TGI (NCI-H23 lung) was 14 µM. It also gave a GI50 (SF-268 CNS) of 3.15 µM, a TGI (SF-268 CNS) of 18.9 µM and a GI50 (U251 CNS) of 1.53 µM. For the same compound, the TGI (U251 CNS) was 12.6 µM, the GI50 (NCI-H226 lung) was 3.97 µM and the TGI (NCI-H226 lung) was 18.9 µM. For the same compound, the GI50 (M14 melanoma) was 0.969 µM, the TGI (M14 melanoma) was 12.3 µM and the GI50 (SK-OV-3 ovarian) was 3.35 µM. It also gave a TGI (SK-OV-3 ovarian) of 17.6 µM, a GI50 (HL-60(TB) leukemia) of 0.461 µM and a TGI (HL-60(TB) leukemia) of 3.93 µM. The GI50 (UO-31 renal) was 2.71 µM, the TGI (UO-31 renal) was 15.5 µM and the GI50 (SNB-19 CNS) was 1.69 µM. It also gave a TGI (SNB-19 CNS) of 17 µM, a GI50 (786-0 renal) of 2.57 µM and a TGI (786-0 renal) of 17.2 µM. The GI50 (OVCAR-8 ovarian) was 3.08 µM, the TGI (OVCAR-8 ovarian) was 15.3 µM and the GI50 (KM12 colon) was 0.888 µM. For the same compound, the TGI (KM12 colon) was 12.4 µM, the GI50 (T-47D breast) was 1.52 µM and the TGI (T-47D breast) was 16.2 µM. For the same compound, the GI50 (MOLT-4 leukemia) was 1.39 µM, the TGI (MOLT-4 leukemia) was 22.5 µM and the GI50 (OVCAR-5 ovarian) was 3.06 µM. It also gave a TGI (OVCAR-5 ovarian) of 13.3 µM, a GI50 (NCI-H522 lung) of 0.557 µM and a TGI (NCI-H522 lung) of 7.49 µM. For the same compound, the GI50 (MDA-MB-231 breast) was 3.96 µM, the TGI (MDA-MB-231 breast) was 19.4 µM and the GI50 (SF-539 CNS) was 1.26 µM. It also gave a TGI (SF-539 CNS) of 5.23 µM, a GI50 (HCT-116 colon) of 1.13 µM and a TGI (HCT-116 colon) of 11.9 µM. The GI50 (NCI-H460 lung) was 1.5 µM, the TGI (NCI-H460 lung) was 10.2 µM and the GI50 (BT-549 breast) was 1.37 µM. It also gave a TGI (BT-549 breast) of 16 µM, a GI50 (COLO 205 colon) of 3.04 µM and a TGI (COLO 205 colon) of 15.6 µM. It also gave a GI50 (MDA-MB-435) of 0.259 µM, a TGI (MDA-MB-435) of 0.817 µM and a GI50 (NCI/ADR-RES ovarian) of 0.761 µM. The TGI (NCI/ADR-RES ovarian) was 6.82 µM, the GI50 (TK-10 renal) was 3.15 µM and the TGI (TK-10 renal) was 17 µM. It also gave a GI50 (HOP-62 NSCLC) of 1.59 µM, a TGI (HOP-62 NSCLC) of 17.6 µM and a GI50 (CAKI-1 renal) of 0.658 µM. It also gave a TGI (CAKI-1 renal) of 14.9 µM, a GI50 (SK-MEL-2 melanoma) of 1.31 µM and a TGI (SK-MEL-2 melanoma) of 16.7 µM. The GI50 (HOP-92 NSCLC) was 0.434 µM, the TGI (HOP-92 NSCLC) was 5.76 µM and the GI50 (HCT-15 colon) was 0.582 µM. The TGI (HCT-15 colon) was 12.3 µM, the GI50 (HCC-2998 colon) was 2.37 µM and the TGI (HCC-2998 colon) was 11.2 µM. It also gave a GI50 (A549 NSCLC) of 1.57 µM, a TGI (A549 NSCLC) of 12.7 µM and a GI50 (SK-MEL-5 melanoma) of 2.7 µM. The TGI (SK-MEL-5 melanoma) was 13.1 µM, the GI50 (UACC-257 melanoma) was 3.74 µM and the TGI (UACC-257 melanoma) was 21.7 µM. It also gave a GI50 (CCRF-CEM leukemia) of 0.877 µM, a TGI (CCRF-CEM leukemia) of 23.1 µM and a GI50 (SN12C renal) of 3.17 µM. For the same compound, the TGI (SN12C renal) was 15.2 µM, the GI50 (EKVX NSCLC) was 2.85 µM and the TGI (EKVX NSCLC) was 15.7 µM. The GI50 (OVCAR-3 ovarian) was 0.404 µM, the TGI (OVCAR-3 ovarian) was 2.89 µM and the GI50 (SK-MEL-28 melanoma) was 3.13 µM. The TGI (SK-MEL-28 melanoma) was 19.9 µM, the GI50 (MALME-3M melanoma) was 1.5 µM and the TGI (MALME-3M melanoma) was 23 µM. It also gave a GI50 (SF-295 CNS) of 0.362 µM, a TGI (SF-295 CNS) of 1.41 µM and a GI50 (UACC-62 melanoma) of 0.475 µM. The TGI (UACC-62 melanoma) was 12.8 µM, the GI50 (HS 578T breast) was 0.416 µM and the TGI (HS 578T breast) was 3.01 µM. The GI50 (SW-620 colon) was 0.65 µM, the TGI (SW-620 colon) was 13.4 µM and the GI50 (OVCAR-4 ovarian) was 3.3 µM. It also gave a TGI (OVCAR-4 ovarian) of 14.9 µM, a GI50 (MCF7 breast) of 0.454 µM and a TGI (MCF7 breast) of 12 µM. The GI50 (RXF 393 renal) was 1.49 µM, the TGI (RXF 393 renal) was 7.55 µM and the GI50 (SR leukemia) was 0.317 µM. The TGI (SR leukemia) was 17.7 µM, the GI50 (K-562 leukemia) was 0.456 µM and the TGI (K-562 leukemia) was 27.4 µM. The GI50 (HT29 colon) was 0.994 µM, the TGI (HT29 colon) was 5.8 µM and the GI50 (IGROV1 ovarian) was 1.45 µM. The TGI (IGROV1 ovarian) was 16.6 µM.
